We go through 2 molecules from ChEMBL document CHEMBL4304832, “Novel Pyrazole-Containing Compounds Active against Mycobacterium tuberculosis” (ACS Med Chem Lett, 2019).

Format in all cases: functional, organism-based
In experiment [1] the test system is Mycobacterium tuberculosis. Briefly: Antitubercular activity against Mycobacterium tuberculosis H37Rv harboring lprM V86V mutant at 25 uM incubated for 4 weeks by resazurin dye based fluorescence assay. (In general: Resazurin is reduced to fluorescent resorufin, in cell work by metabolically active cells.)
Experiment [2] has as its system Mycobacterium tuberculosis. Briefly: Antitubercular activity against Mycobacterium tuberculosis H37Rv harboring mmpL3 P239H mutant at 20 uM incubated for 4 weeks by resazurin dye based fluorescence assay.
Experiment [3] has as its system Mycobacterium tuberculosis. Briefly: Antitubercular activity against Mycobacterium tuberculosis H37Rv harboring fadD26 (336 amino acids) insertion mutant at 20 uM incubated for 4 weeks by resazurin dye based fluorescence assay.
Experiment [4] relates to Mycobacterium tuberculosis. Put plainly: Antitubercular activity against Mycobacterium tuberculosis H37Rv harboring mmpL3 V240A mutant at 12.5 uM incubated for 4 weeks by resazurin dye based fluorescence assay.
In experiment [5] the test system is Mycobacterium tuberculosis. Briefly: Antitubercular activity against Mycobacterium tuberculosis H37Rv harboring ppsB L1476S mutant at 12.5 uM incubated for 4 weeks by resazurin dye based fluorescence assay.

Activity calls are given as the source filed them. The rule behind the calls is not given here.

For `CC(C)c1ccc(-c2cc(CN3CCN(c4ccccn4)CC3)nn2C2CCCCC2)cc1`, the result in experiment [1], in experiment [2] and in experiment [3] was Active.
Take `COC1CCN(Cc2cc(-c3ccc(C(C)C)cc3)n(-c3ccc(F)cc3)n2)CC1`: the result in experiment [4] and in experiment [5] was Active.
